Molecules are shown by their SMILES. Converted amounts (≈) assume the structure as drawn. “Also recorded” adds a separate entry of the source.

Consider 3 compounds from patent US10654820B2, “Crystal form of tasimelteon” (ZHEJIANG JINGXIN PHARMACEUTICAL CO., LTD., priority 2016, dated 2020).

Data set [1] in a line: Intrinsic dissolution studies in water. In kind it is physicochemical. The note with it: 37° C., 150 r.p.m., compressed disk. As to the method: Example 23 Intrinsic Dissolution Studies
200 mg of crystal form I or crystal form II was taken in the intrinsic attachment and compressed to a 1.33 cm^2 and 0.1 cm thick of disk using a hydraulic press at a pressure of 9 MPa for 60 s. The intrinsic attachment was placed in a jar of 100 mL of water to 37° C. and rotated at 150 r.p.m. 1 milliliter of the aliquot each is collected at specific time intervals and blank medium of the same volume and temperature is added, and the absorbance at max (281 nm) is measured, and the cumulative dissolution rate is calculated to plot the concentration-time standard curves of the respective compounds.

Data set [2] can be described thus: Thermogravimetric analysis (TGA), thermal stability. In kind it is physicochemical. The note with it: for thermal stability: result in words. As to the method:
Thermogravimetric Analysis (TGA)
TGA was performed on a TA instruments SDT Q600 thermogravimetric analyzer. The samples were heated over the temperature range room temperature of 30-365° C. at a constant heating rate of 10° C./min. The samples were purged with a stream of flowing nitrogen at 120 ml/min throughout the experiment.

The nature of data set [3]: Solubility in water at 37° C. (equilibrium solubility, 72 hours, absorbance at 281 nm). In kind it is physicochemical. The note with it: balanced for 72 hours. The procedure: Example 22 Solubility in Water at 37° C.
Move 25 ml water into a 50 ml eggplant bottle separately, add crystal form I and crystal form II Tasimelteon separately, stir in a constant temperature oil bath to balance for 72 hours, and then filtrate by 0.45 microporous membrane. The filtrate is diluted by water. The water solubilities of crystal form I and crystal form II at 37° C. were determined by calculating each sample concentration of its saturated solution determined through measuring absorbance at λmax (281 nm). Standard curve method is used to calculate the equilibrium solubility.

Data set [4] has as its system totally blind subjects diagnosed with non-24. The note with it: cited from earlier work.

For `CCC(=O)NC[C@@H]1C[C@H]1c1cccc2c1CCO2` [crystal form I, (1R-2R)—N-[2-(2,3-dihydrobenzofuran-4-yl)cyclopropylmethyl]propanamide], the intrinsic dissolution rate result in data set [1] (FIG. 9) was “high”; in data set [1] (FIG. 9, listed as form I), “good dissolution rate”. Further, the thermal stability entry in data set [2] was “good thermal stability”. This compound also returned a solubility at 72 h in data set [3] (37 °C, thermodynamic from solid) of 81 µg/mL (≈ 330 µM).

On to `CCC(=O)NC[C@@H]1C[C@H]1c1cccc2c1CCO2` [crystal form II, (1R-2R)—N-[2-(2,3-dihydrobenzofuran-4-yl)cyclopropylmethyl]propanamide], for which the intrinsic dissolution rate entry in data set [1] (FIG. 9) is recorded as “high in water, especially for crystal form II compared to crystal form I; also recorded: good dissolution rate, especially for crystal form II compared to form I”. In addition, the “decomposition temperature (TGA)” value in data set [2] (heating rate of 10° C./min, nitrogen) is “approximately 200 °C”. The thermal stability result in data set [2] is on record as “good thermal stability”. The compound further had a water solubility in data set [3] of 104 µg/mL (≈ 424 µM).

As for `CCC(=O)NC[C@@H]1C[C@H]1c1cccc2c1CCO2` [Tasimelteon, (1R-2R)—N-[2-(2,3-dihydrobenzofuran-4-yl)cyclopropylmethyl]propanamide], the “proportion of individuals becoming entrained to the 24-hour cycle” value in data set [4] (physiologic monitoring, compared with placebo) is “higher proportion of individuals becoming entrained to the 24-hour cycle compared with placebo”. Also, the “efficacy on nighttime wakefulness and daytime napping” value in data set [4] (totally blind subjects diagnosed with non-24) was “reducing both nighttime wakefulness and daytime napping”.

For orientation: solubility means the dissolved amount per volume that the medium holds. Read a low solubility as little dissolved substance.
